According to patent publication US7442706B2, “Methods for treating sarcopenia with a growth hormone secretagogue” (priority 2006, dated 2008):
Marks after values point to notes of the source that are not given here.

Experiments:
[1] = Body water (TBW by deuterium dilution, ECW by bromide dilution, ICW by difference); assay type: in vivo, human; conditions: 12 months; expressed per kg FFM
Method: Body Water. Total body water (TBW) was measured using the deuterium oxide (D2O) dilution technique ((8) and extracellular water (ECW) by bromide dilution (10). Intracellular water (ICW) was assessed as the difference between TBW and ECW. To determine the relative relationships of total-, extra- and intra-cellular water, each component (in kg) was expressed per kg of FFM at each time point.

[2] = tested on: quadriceps muscle; conditions: canines during remobilization; cited from earlier work
[3] = T-score for total appendicular skeletal mass TASM/ht^2 (sarcopenia index); assay type: in vivo, human
Method: The primary outcome measures were the effects of increased GH and IGF-I on AVF and FFM; additional outcomes included body weight, fat mass, body water compartments, 24-h GH secretory dynamics, insulin sensitivity, quality of life and physical performance. Because gender and height influence total muscle mass, an index of relative muscle mass was calculated: total ASM from DXA was divided by height squared in meters (TASM (kg)/ht^2). To put changes in FFM in a clinical perspective, a t-score was computed for each individual, relating the TASM/ht^2 to those of gender-specific young adults (12). In accordance with Baumgartner et al., sarcopenia was defined as ≦2 SD below young, gender-specific reference populations (13; 14).

[4] = Body composition: body weight, FFM, fat mass, ASM (4-compartment model, DXA), AVF and thigh muscle (CT); assay type: in vivo, human; conditions: for Mean Change in FFM from Baseline, 4-C / Mean Change in FFM from Baseline, DXA: n = 43
Method: This example presents the 6 and 12 mo (pivotal) body composition data in all subjects studied in a 2-yr crossover study. A total of 65 healthy older [60-81 yr; BMI 26.1±3 (19-35) kg/m^2] men and women on and off HRT (hormone replacement therapy) received MK-677 (⅔ of each group) or placebo in Yr 1. Total body fat mass, % fat, and fat-free mass (FFM) were determined every 6 mo over 2 yr using a 4-compartment (4-C) model, as well as dual energy x-ray absorptiometry (DXA, QDR 2000). 4-C model components: body weight and density (BodPod); total body water (D2O dilution); total bone mineral content (DXA). Data were analyzed by way of repeated measure ANCOVA with baseline response as the model covariate. P values and confidence limits were derived based on a Bonferroni two-sided experiment wise error rate 0.05; data shown are mean (upper and lower Bonferroni 95% CL).
Sixty-five healthy men and women (±HRT) ages 60-81 years were enrolled in a 2-year study of MK-677 (25 mg p.o. daily) or placebo. In addition to GH and IGF-I, the primary endpoints were fat-free mass (FFM), by 4-compartment model and DXA, and abdominal visceral fat (AVF) by CT. Secondary endpoints included isokinetic strength, function and quality of life (QoL); all endpoints were assessed at baseline and every 6 months, with frequent monitoring for adverse effects.
This NIH-funded study was approved by the General Clinical Research Center (GCRC) and the University of Virginia Institutional Review Boards. All subjects gave written informed consent. A two-year, double-blind, placebo-controlled modified crossover trial of once-daily administration of an oral GH secretogogue (MK-677, 25 mg) to healthy older adults was performed.
During the first year, subjects were randomized to MK-677 or placebo treatment. In each of 3 groups (23 men, 25 women on hormone replacement therapy (HRT) and 17 women not on HRT), ⅔ received MK-677 and ⅓ received placebo. At the end of year 1, the subjects who received placebo were switched to MK-677 treatment (N= 2/0 in year 2); subjects who received MK-677 for the first year were randomized to continue MK-677 (N=20) or to placebo (N=19).
Body Composition. The effects of treatment on FFM and total body fat were evaluated by two independent methods: a 4-compartment (4-C) model (5); and dual x-ray absorptiometry (DXA). All subjects were scanned on the same Hologic QDR-2000 in pencil beam mode as previously described (6); all scans were read by a single observer (J. L. C.). Total appendicular skeletal muscle (lean) mass (TASM) from DXA was measured as the sum of the lean soft-tissue masses for the arms and the legs as described by Heymsfield et al. (7). Total and abdominal visceral fat (AVF), and subcutaneous fat areas (cm^2), as well as thigh muscle were measured by computed tomography (CT) ((8) and all scans were read by a single observer (J. L. C.)
The two primary endpoints for this study are: 1) FFM, which is an important determinant of functional ability; and 2) AVF, which is the most important fat depot for cardiovascular risk. Based on a sample size of 60 subjects (40 randomized to MK-677 and 20 to placebo in year 1), this cross-over study was designed to have at least 90% power to detect a 4.1% or greater between-group difference in the change in percent FFM, with the same power to detect a 12.6% or greater between-group difference in the change in AVF (cm^2) after the initial 12-months of treatment. The sample size formula for two-sample Student's t-test was used to conduct the power analysis. The standard deviations used in the power calculations were 4.4% for percent FFM and 14.1% for AVF. Both power calculations reflect the power of a two-sided test with a type I error rate of 0.05.
The primary outcome data for the 6- and 12-month changes in FFM and AVF as well as for IGF-I and GH were analyzed via repeated measures ANCOVA. […]

[5] = tested on: GH; conditions: healthy older men and women; 25 mg p.o. daily; cited from earlier work
[6] = orally active; cited from earlier work
[7] = 6 mo, 25 mg p.o. daily, mean (Bonferroni 95% CL)
[8] = 12 mo, 25 mg p.o. daily, methanesulfonate

CC(C)(N)C(=O)N[C@H](COCc1ccccc1)C(=O)N1CCC2(CC1)CN(S(C)(=O)=O)c1ccccc12.CS(=O)(=O)O [MK-677, N-[1(R)-[(1,2-dihydro-1-methanesulfonylspiro[3H-indole-3,4′-piperidin]-1′-yl)carbonyl]-2-(phenylmethyloxy)ethyl]-2-amino-2-methylpropanamide methanesulfonate]
changes in TBW, ECW or ICW vs. placebo [1]: no significant changes | serum insulin-like growth factor-1 levels [2]: elevated levels of serum insulin-like growth factor-1 | size and strength of the quadriceps muscle [2]: increased the size and strength of the quadriceps muscle | T-scores for TASM/ht^2 vs. placebo ([3]; 12 months): significantly increased | subjects with a decrease in t-score (TASM/ht^2) ([3]; end of year 1, 25 mg p.o. daily): 7 of 43 | increase in appendicular skeletal muscle compared to placebo ([4]; 25 mg orally daily, over the first year): 1.6 kg | Total ASM change from baseline and vs. placebo ([4]; 6 and 12 months, DXA): significantly increased | Estimated Difference in Change (MK-677 vs Placebo), Body Wt ([4]; 6 mo, 25 mg p.o. daily): 2.3 (0.8-3.8)*** kg | Estimated Difference in Change (MK-677 vs Placebo), FFM, 4-C ([4]; 6 mo, 25 mg p.o. daily): 1.28 (0.21-2.36)* kg | Estimated Difference in Change (MK-677 vs Placebo), FFM, DXA ([4]; 6 mo, 25 mg p.o. daily): 1.15 (0.28-2.02)** kg | Mean Change in FFM from Baseline, 4-C [4, 7]: 1.12 (0.48-1.75) kg | Mean Change in FFM from Baseline, DXA [4, 7]: 0.98 (0.47-1.48) kg | Total body weight increase ([4]; 6 months, 25 mg p.o. daily, placebo 0.7 kg): 3.1 kg | Estimated Difference in Change (MK-677 vs Placebo), Body Wt ([4]; 12 mo, 25 mg p.o. daily): 1.9 (0.5-3.4)** kg | Estimated Difference in Change (MK-677 vs Placebo), FFM, 4-C ([4]; 12 mo, 25 mg p.o. daily): 1.64 (0.56-2.71)** kg | Estimated Difference in Change (MK-677 vs Placebo), FFM, DXA ([4]; 12 mo, 25 mg p.o. daily): 1.54 (0.67-2.41)*** kg | Mean Change in FFM from Baseline, 4-C [4, 8]: 1.27 (0.64-1.90) kg | Mean Change in FFM from Baseline, DXA [4, 8]: 1.09 (0.58-1.59) kg | increase in thigh muscle area measured by CT vs. placebo ([4]; 12 months): did not reach statistical significance | Total body weight increase ([4]; 12 months, 25 mg p.o. daily, placebo 0.8): 2.7 kg | total body fat increase from baseline, DXA ([4]; 12 months, 25 mg p.o. daily, placebo 1.1 kg): 1.8 kg | mean AVF increase from baseline, CT ([4]; 12 months, 25 mg p.o. daily, placebo 4.2 cm^2): 8.4 cm^2 | Subcutaneous fat change from baseline ([4]; 12 months, CT): significantly increased from baseline | leg ASM change vs. baseline ([4]; 12 months, DXA): increased significantly | total body fat, difference between MK-677 and placebo groups ([4]; 12 months, DXA): no significant difference between groups | increase in FFM of the first year, in subjects treated for 2 yr ([4]; Yr 2, n=17, descriptive data): maintained | increase in FFM in subjects switched from MK-677 to placebo ([4]; yr 2, descriptive data): lost | IGF-I and pulsatile GH release, previously reported [5]: enhanced IGF-I and pulsatile GH release into the young adult normal range | diet-induced catabolism [6]: reverses diet-induced catabolism
